Consider ten molecules from patent publication EP0855387A1, “2-ACYLAMINOBENZAMIDE DERIVATIVES AND PREVENTIVE AND REMEDY FOR DISEASES CAUSED BY THE SUPERMULTIPLICATION OF VASCULAR INTIMAL CELLS” (KISSEI PHARMACEUTICAL CO., LTD., priority 1995, dated 1997).

For data set [1], the system named is thrombosis-induced neointimal hyperplasia in mouse femoral artery. Description: Inhibition test on neointimal hyperplasia (thrombosis-induced model). It is filed as in vivo. The note with it: oral, once a day for 3 weeks; dose reducing the neointimal area of the non-treated group by 50 %. As to the method:
The effect of compounds in vivo was evaluated by using a model of thrombosis-induced neointimal hyperplasia in mouse femoral artery. Each compound was suspended in 0.5 % carboxymethylcellulose sodium solution and administered orally to mice once a day for 3 weeks. After final administration, the femoral artery was fixed and removed. Cross sections of vessels were made consecutively and the neointimal area induced and formed by thrombosis was measured. Inhibitory activity on neointimal hyperplasia of each compound was shown as a dose which reduced the area of the non-treated group by 50 % (ID50).

Data set [2] relates to Spontaneous hypertensive rat-derived vascular smooth muscle cells (VSMCs) in thoracic aorta. As to the kind of experiment: Inhibition test on vascular smooth muscle cells proliferation (3H-thymidine incorporation). The format is cell-based. Particulars: Rattus norvegicus, VSMC. As to the method:
Thus, the compounds of the present invention have a very potent inhibitory effect on vascular smooth muscle cells proliferation.
Spontaneous hypertensive rat-derived vascular smooth muscle cells (VSMCs) in thoracic aorta were isolated by explant technique. The VSMCs were placed into 96 wells at 5000 cells/well and incubated in DMEM containing 10 % fetal calf serum at 37 °C in 95 % air and 5 % carbon dioxide for 3 days. After the incubation, the medium was replaced with DMEM containing each compound and ^3H-thymidine, and then the VSMCs were incubated. 24 hours later, the incorporation of ^3H-thymidine into DNA was determined and the radioactivity was defined as proliferation inhibitory activity of VSMCs. The activity of each compound was shown as a concentration which reduced the radioactivity of non-treated group by 50 % (IC50).

The next data set is described as follows: Acute toxicity test. Particulars: single oral administration, dose of 2000mg/kg; for death (dead mice): 2000 mg/kg. The format is in vivo. As to the method:
The compounds represented by the general formula (I) of the present invention have an LD50 value extremely preferable to that of Tranilast and therefore are very safer compounds.
Male ICR nice were fasted for 4 hours. 2-(3,4-Dimethoxycinnamoylamino)benzamide was suspended in 0.5 % carboxymethylcellulose sodium and administered orally at doses of 300, 1000 and 2000mg/kg, respectively. Dead mice and abnormal behavior were not observed even in the group administered at a dose of 2000mg/kg.

Data set [3] concerns restenosis after PTCA surgery. The note with it: patients after PTCA surgery; incidence without the drug about 30-40%; cited from earlier work.
[4] abbreviates: 3H-thymidine incorporation into DNA, 24 hours incubation with compound, read-out: Concentration of 50% inhibitory activity (IC50).

Like-named read-outs stand apart in the source and are kept apart here.

`COc1ccc(/C=C/C(=O)Nc2ccccc2C(N)=O)cc1OC` [Compound 4, (E)-2-(3,4-Dimethoxycinnamoylamino)benzamide]: the “Dose of 50% inhibitory activity (ID50)” value in data set [1] turned out to be 1 mg/kg. In data set [2] (setting [4]), the IC50 worked out at 27 µM. Also, the abnormal behavior entry in the data set “Acute toxicity test” (mice) is reported as “not observed”. In addition, the “death (dead mice)” value in “Acute toxicity test” (listed as 2-(3,4-Dimethoxycinnamoylamino)benzamide) is recorded as “not observed”; in “Acute toxicity test” (listed as 2-(3,4-dimethoxycinnamoylamino)benzamide) it was “no death was observed”. Consider `CCOc1ccc(/C=C/C(=O)Nc2ccccc2C(N)=O)cc1OC` [Compound 17, (E)-2-(4-Ethoxy-3-methoxycinnamoylamino)benzamide], for which the “Dose of 50% inhibitory activity (ID50)” value in data set [1] is reported as 1 mg/kg. The IC50 in data set [2] (setting [4]) turned out to be 5 µM. As for `COc1ccc(NC(=O)/C=C/c2ccc(OC)c(OC)c2)c(C(=O)NCCO)c1` [Compound 62, (E)-2-(3,4-Dimethoxycinnamoylamino)-N-(2-hydroxyethyl)-5-methoxybenzamide], the IC50 in data set [2] (setting [4]) stood at 89 µM. For the molecule `COc1cc(/C=C/C(=O)Nc2ccc(O)cc2C(N)=O)cc(OC)c1OC` [Compound 63, (E)-5-Hydroxy-2-(3,4,5-trimethoxycinnamoylamino)benzamide], the IC50 in data set [2] (setting [4]) amounted to 46 µM.

For `COc1cc(/C=C/C(=O)Nc2c(O)cccc2C(N)=O)cc(OC)c1OC` [Compound 64, (E)-3-Hydroxy-2-(3,4,5-trimethoxycinnamoylamino)benzamide], the IC50 in data set [2] (setting [4]) was 96 µM. Still for that read-out and setting: the result for `CCOc1ccc(/C=C/C(=O)Nc2cc(OC)c(OC)cc2C(N)=O)cc1OC` [Compound 65, (E)-4,5-Dimethoxy-2-(4-ethoxy-3-methoxycinnamoylamino)benzamide] reads 12 µM. Turning to `COc1ccc(/C=C/C(=O)Nc2cc(OC)c(OC)cc2C(N)=O)cc1OC` [Compound 66, (E)-4,5-Dimethoxy-2-(3,4-dimethoxycinnamoylamino)benzamide], the IC50 in data set [2] (setting [4]) is 13 µM.

For `COc1ccc(NC(=O)/C=C/c2ccc(OC)c(OC)c2)c(C(N)=O)c1` [Compound 67, (E)-2-(3,4-Dimethoxycinnamoylamino)-5-methoxybenzamide], the IC50 in data set [2] (setting [4]) is 57 µM. Still for that read-out and setting: the result for `COc1cc(/C=C/C(=O)Nc2ccccc2C(N)=O)cc(OC)c1O` [Compound 69, (E)-2-(3,5-Dimethoxy-4-hydroxycinnamoylamino)benzamide] reads 55 µM. As to `COc1ccc(C=CC(=O)Nc2ccccc2C(=O)O)cc1OC` [Tranilast, 2-(3,4-dimethoxycinnamoylamino)benzoic acid, reference compound], the “Dose of 50% inhibitory activity (ID50)” value in data set [1] came out at 100 mg/kg. Besides, the IC50 in data set [2] (in vitro, read-out: concentration exhibiting a 50% inhibitory activity on vascular smooth muscle cells proliferation) was found to be 231 µM. Further, the “restenosis observed when administering after PTCA surgery” value in data set [3] is listed as 10-15%.
